In data set [1] the target is Angiotensin-converting enzyme (Homo sapiens) (UniProt P12821).
For another data set, the target named is Neprilysin (Homo sapiens, UniProt P08473).
A short description of data set [2]: Half life in iv dosed rat. The data set is classed as ADME, organism-based. The conditions noted are these: in vivo.
Data set [3] in a line: Oral bioavailability in rat. The settings on record: in vivo. The data set is classed as ADME, organism-based.
Data set [4] is described as follows: Clearance in iv dosed rat. The class given is ADME, organism-based. The conditions noted are these: in vivo.

Chain of Angiotensin-converting enzyme (Homo sapiens) (P12821 whole entry, looked up): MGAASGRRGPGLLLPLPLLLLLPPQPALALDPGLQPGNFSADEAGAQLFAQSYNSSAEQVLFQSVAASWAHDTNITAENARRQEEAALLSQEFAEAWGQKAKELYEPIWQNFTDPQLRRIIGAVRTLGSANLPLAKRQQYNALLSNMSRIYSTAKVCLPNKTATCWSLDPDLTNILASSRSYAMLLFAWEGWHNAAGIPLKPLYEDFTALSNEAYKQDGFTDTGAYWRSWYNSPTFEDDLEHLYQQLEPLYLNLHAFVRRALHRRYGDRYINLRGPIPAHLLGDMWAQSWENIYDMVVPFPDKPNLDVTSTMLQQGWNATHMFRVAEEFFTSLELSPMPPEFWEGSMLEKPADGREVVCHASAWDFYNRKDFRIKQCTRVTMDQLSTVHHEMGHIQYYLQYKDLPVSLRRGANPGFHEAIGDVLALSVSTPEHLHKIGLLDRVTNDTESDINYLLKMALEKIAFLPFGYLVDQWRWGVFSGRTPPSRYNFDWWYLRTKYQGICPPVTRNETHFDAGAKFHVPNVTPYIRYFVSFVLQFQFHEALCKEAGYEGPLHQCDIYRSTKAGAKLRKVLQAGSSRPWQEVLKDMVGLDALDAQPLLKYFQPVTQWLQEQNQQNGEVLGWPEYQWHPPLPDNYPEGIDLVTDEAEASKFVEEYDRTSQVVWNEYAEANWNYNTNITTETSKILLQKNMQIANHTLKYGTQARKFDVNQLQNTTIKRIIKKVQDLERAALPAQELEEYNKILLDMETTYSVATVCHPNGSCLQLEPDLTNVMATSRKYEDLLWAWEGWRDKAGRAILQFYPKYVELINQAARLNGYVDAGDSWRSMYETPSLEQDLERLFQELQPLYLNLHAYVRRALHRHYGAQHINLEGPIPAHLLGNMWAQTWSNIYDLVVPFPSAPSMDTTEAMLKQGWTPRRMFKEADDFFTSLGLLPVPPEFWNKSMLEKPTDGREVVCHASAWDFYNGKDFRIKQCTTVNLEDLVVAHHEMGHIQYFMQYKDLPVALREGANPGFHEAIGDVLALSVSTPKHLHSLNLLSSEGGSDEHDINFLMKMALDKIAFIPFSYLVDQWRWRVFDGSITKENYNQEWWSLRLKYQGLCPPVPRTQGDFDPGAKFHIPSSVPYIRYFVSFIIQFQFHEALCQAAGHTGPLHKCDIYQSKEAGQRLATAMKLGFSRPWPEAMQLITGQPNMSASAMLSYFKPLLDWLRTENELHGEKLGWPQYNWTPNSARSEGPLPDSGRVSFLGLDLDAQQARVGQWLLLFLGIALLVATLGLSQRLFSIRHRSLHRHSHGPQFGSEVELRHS
Chain of Neprilysin (P08473 whole entry): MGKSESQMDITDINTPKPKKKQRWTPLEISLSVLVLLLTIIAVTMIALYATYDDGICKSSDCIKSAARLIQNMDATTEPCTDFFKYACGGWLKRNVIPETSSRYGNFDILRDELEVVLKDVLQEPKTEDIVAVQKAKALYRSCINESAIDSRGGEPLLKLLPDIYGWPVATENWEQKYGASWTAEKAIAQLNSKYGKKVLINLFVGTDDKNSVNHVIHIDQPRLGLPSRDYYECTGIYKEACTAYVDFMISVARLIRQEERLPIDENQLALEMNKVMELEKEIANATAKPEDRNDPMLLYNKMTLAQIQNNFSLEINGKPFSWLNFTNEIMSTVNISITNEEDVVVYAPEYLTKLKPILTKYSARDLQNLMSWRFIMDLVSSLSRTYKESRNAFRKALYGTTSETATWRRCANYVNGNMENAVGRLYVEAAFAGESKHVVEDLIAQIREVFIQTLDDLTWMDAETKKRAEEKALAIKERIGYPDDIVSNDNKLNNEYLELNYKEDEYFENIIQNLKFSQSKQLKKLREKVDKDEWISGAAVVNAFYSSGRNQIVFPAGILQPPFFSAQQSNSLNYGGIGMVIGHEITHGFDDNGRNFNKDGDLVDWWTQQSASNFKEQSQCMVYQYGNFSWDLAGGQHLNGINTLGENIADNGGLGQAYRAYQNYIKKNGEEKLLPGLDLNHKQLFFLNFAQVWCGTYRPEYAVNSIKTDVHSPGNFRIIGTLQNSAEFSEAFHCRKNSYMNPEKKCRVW
Description for Neprilysin: Inhibition of neutral endopeptidase

Take `CC(C)CC[C@H](N[C@@H](CCc1ccccc1)C(=O)O)C(=O)N[C@@H](Cc1ccc(-c2ccccc2)cc1)C(=O)O`: the figures for the IC50 (in data set [1]; against Neprilysin) were 1.5 nM and 28 nM, respectively.
For `CCC[C@H](NC1(C(=O)N[C@@H](Cc2nc(CC)co2)C(=O)O)CCCC1)C(=O)O` the same measures were 130 nM and 22 nM.
For `CCC[C@H](NC1(C(=O)N[C@@H](Cc2nc(CC(C)C)co2)C(=O)O)CCCC1)C(=O)O` the same measures were 75 nM and 20 nM.
Regarding `CCC[C@H](NC1(C(=O)N[C@@H](Cc2nc(-c3ccccc3)co2)C(=O)O)CCCC1)C(=O)O`, in data set [1], the IC50 (usually the concentration that inhibits the measured activity by half) came to 25 nM.
In turn, `CCC[C@H](NC1(C(=O)N[C@@H](Cc2ncc(-c3ccccc3)o2)C(=O)O)CCCC1)C(=O)O` yielded an IC50 in data set [1] of 82 nM.
Still for that read-out and setting: with `COCC[C@H](NC1(C(=O)N[C@@H](Cc2nc(-c3ccccc3)co2)C(=O)O)CCCC1)C(=O)O` the figure was 130 nM.
In data set [1], `COCC[C@H](NC1(C(=O)N[C@@H](Cc2ncc(-c3ccccc3)o2)C(=O)O)CCCC1)C(=O)O` had a half-inhibitory concentration (IC50) of 270 nM. Further, the half-life – broadly, the time in which the quantity being followed falls by half – in data set [2] is 2.1 h. The bioavailability (as a rule, dose-corrected exposure relative to a reference, in per cent) in data set [3] is 1.7%. In addition, in data set [4], the clearance (as a rule, a measure of how efficiently the substance is removed, as volume per time) came to 4.8 mL/min/kg.
In data set [1], `COCC[C@H](NC1(C(=O)N[C@@H](Cc2nc(C)c(-c3ccccc3)o2)C(=O)O)CCCC1)C(=O)O` had an IC50 of 210 nM.
For `COCC[C@H](NC1(C(=O)N[C@@H](Cc2ncc(-c3ccc(Cl)cc3)o2)C(=O)O)CCCC1)C(=O)O`, the figures for the 50% inhibitory concentration (IC50) (in data set [1]; on Neprilysin) were 195 nM and 0.3 nM, respectively.
For `COCC[C@H](NC1(C(=O)N[C@@H](Cc2nnc(-c3ccccc3)o2)C(=O)O)CCCC1)C(=O)O` the same measures were more than 3000 nM and 6 nM.
For `COCC[C@H](NC1(C(=O)N[C@@H](Cc2nc(-c3ccccc3)no2)C(=O)O)CCCC1)C(=O)O` the same measures were 58 nM and 1.9 nM.
The matching figures for `COCCOC[C@H](CC1(C(=O)N[C@H]2CC[C@@H](C(=O)O)CC2)CCCC1)C(=O)O` [CANDOXATRILAT]: “Not Active” and 7.8 nM.
For `CS(=O)(=O)N[C@@H](CCCCN)C(=O)NC[C@H](CC1(C(=O)N[C@@H](Cc2ccc(O)cc2)C(=O)O)CCCC1)C(=O)O` [SAMPATRILAT], the IC50 in data set [1] stood at 3.4 nM; at Neprilysin it was 0.6 nM.

The values are drawn from ChEMBL document CHEMBL1777772, “Synthesis and evaluation of heteroarylalanine diacids as potent and selective neutral endopeptidase inhibitors” (Bioorg Med Chem Lett, 2011).
